Results published in patent US7250251B2, “Virion-based fusion assay” (The J. David Gladstone Institutes, priority 2002, dated 2007).

Experiments:
[1] = test system: X4-tropic NL4-3 virions containing BlaM-Vpr fusing to SupT1 cells; assay: Virion-based fusion assay (BlaM-Vpr/CCF2) in SupT1 cells, flow cytometry; type: cell-based, HIV-1; details: NL4-3, 2 hours, about 20% of cells shifted without inhibitor
Experimental: (§1) No antibiotics were added to the culture media.
(§2) Light splitting was performed using a 505 SP filter.
After CCF2/AM loading, fusion was analyzed by multi-parameter flow cytometry using a violet laser for excitation of CCF2.

[2] = test system: X4-tropic NL4-3 strain of HIV (BlaM-Vpr-containing virions) fusing to HeLa-CD4 cells; details: 250 nM added 1 hour prior to infection, NL4-3 200 ng p24-Gag, 2 hours, about 10% blue cells without inhibitor
Experimental: The virion-based fusion assay was performed in three successive steps, including 1) incubation of target cells with virus particles; 2) loading of target cells with CCF2/AM dye, and 3) development and detection of the BlaM reaction. Once target cells were loaded with the CCF2 dye, the cells were maintained at room temperature to avoid export of CCF2. Since viral infections are performed at 37° C., the infection step was performed first, and then the cell cultures were subsequently loaded with the CCF2/AM dye. […]
The change in emission fluorescence of CCF2 following cleavage by the BlaM-Vpr chimera was monitored by flow cytometry using a 3 laser Vantage SE instrument (Becton Dickinson, Inc., San Jose, Calif.). […] Blue emission was detected using an HQ455/50 filter while green emission data was collected using an HQ545/90 BP filter. […] Data were collected using CellQuest and analyzed with FlowJo software (Treestar Inc., San Carlos, Calif.). […]
Cultures of HeLa-CD4 cells expressing endogenous CXCR4 receptors were either mock-infected or infected for 2 hours with BlaM-Vpr-containing virions (200 ng p24-Gag) corresponding to an X4-tropic NL4-3 strain of HIV or an R5-tropic 81A strain of HIV. […] After loading of the cells with the CCF2/AM dye, fusion was analyzed by fluorescence microscopy. […]

[3] = test system: CXCR4-tropic HIV-1 virions containing BlaM-Vpr fusing to primary PBMCs; assay: Virion-based fusion assay (BlaM-Vpr/CCF2) in PHA-stimulated PBMCs, flow cytometry; type: cell-based; details: CXCR4-tropic virions 100 ng p24 Gag, 2 hours, 5.2% of cells fused without inhibitor
Experimental: as §1, §2
PBMCs were activated with phytohemagglutinin (PHA) (10 ug/ml) overnight and subsequently cultured in IL-2 (20 IU/ml) for 5 days. The cells were then either mock-infected (FIG. 5, panel a) or infected for 2 hours with 100 ng p24-Gag of X4-tropic NL4-3 virions containing the BlaM-Vpr chimeric viral protein (FIG. 5, panels b, c, d, and e) or 500 ng p24-Gag of R5-tropic […] virions containing the BlaM-Vpr chimeric viral protein (FIG. 5, panels f, g, h, and i) either in the absence of inhibitors (FIG. 5, panel b and f) or in the presence of AMD3100 (250 nM, FIG. 5, panel c and g), […] (250 nM, FIG. 5, panels d and h), or AZT (10 μM, FIG. 5, panels e and i). After CCF2/AM dye loading of the cells, the BlaM reaction was allowed to develop for 12 hours. Virion fusion was analyzed by multi-parameter flow cytometry.

[4] = test system: CCR5-tropic strain of HIV-1 (81A) containing BlaM-Vpr fusing to CCR5-Jurkat T cells; assay: Virion-based fusion assay (BlaM-Vpr/CCF2) in Jurkat T cells expressing CCR5; type: cell-based; details: 250 nM preincubation, R5-tropic 81A virions
Experimental: as §1, §2
To investigate whether the BlaM-Vpr assay discriminates between productive and non-productive virion entry by fusion and endocytosis respectively, Jurkat T cells either expressing or not expression CCR5 were incubated with a CCR5-tropic strain of HIV-1 (81A) containing BlaM-Vpr (FIG. 3). […] These 81A virions were capable of fusion as indicated by the increase in blue fluorescence obtained when these virions were incubated with Jurkat T cells expressing CCR5 (FIG. 3, panel d, compare with mock infection control in FIG. 3, panel c).

Structure (SMILES) | shift to increased blue fluorescence induced by viral infection (virion fusion) ([1]; 250 nM pretreatment) | blue cells (virion fusion, CCF2 cleavage) in virally infected cells pretreated with inhibitor [2] | inhibition of shift to greater blue fluorescence (virion fusion) ([3]; 250 nM pretreatment) | shift to increased blue fluorescence induced by viral infection (virion fusion) ([1]; 10 μM) | inhibition of shift to greater blue fluorescence (virion fusion) ([3]; 10 μM pretreatment) | shift to increased blue fluorescence (virion fusion) [4]
c1cc(CN2CCCNCCNCCCNCC2)ccc1CN1CCCNCCNCCCNCC1 [AMD3100] | almost completely blocked | essentially no blue cells were detected | inhibited this change |  |  | 
Cc1cn([C@H]2C[C@H](N=[N+]=[N-])[C@@H](CO)O2)c(=O)[nH]c1=O [AZT] |  |  |  | did not impair the shift to greater blue fluorescence | produced no inhibitory effect | 
Cc1ccc(-c2ccc3c(c2)C=C(C(=O)Nc2ccc(C[N+](C)(C)C4CCOCC4)cc2)CCC3)cc1.[Cl-] [TAK-779] |  |  | produced no inhibitory effect |  |  | no shift to increased blue fluorescence was observed
